We go through one molecule from patent publication US20230067666A1, “METHOD FOR PREPARING COUMARIN COMPOUNDS SUBSTITUTED BY AMIDOALKYL AT 3-POSITION, THE PRODUCTS AND RELATED INTERMEDIATES THEREOF” (Fosun Orinove PharmaTech, Inc., priority 2019, published 2023).

Holding throughout (assay type): physicochemical
A short description of data set [1]: test of stability against mechanical treatment (grinding, XRPD). To be noted: ground in a mortar for 2 min and 5 min. As to the method:
In one embodiment, the stability of the crystal form I against mechanical treatment is determined by the following method: the crystal form I is placed in a mortar, ground for 2 min and 5 min respectively, and XRPD detection is carried out to analyze the solid after grinding. The crystal form I was placed in a mortar, ground for 2 min and 5 min, respectively, and XRPD detection was carried out to analyze the solid after grinding.

Data set [2] in a line: dynamic vapor sorption (DVS) test. Conditions: for hygroscopicity (result in words): DVS. From the text:
Dynamic Vapor Sorption (DVS) is a common method to investigate the moisture adsorption of drugs, excipients or packaging materials through a dynamically accelerated moisture adsorption process. The moisture adsorption isotherm is usually used to describe the degree of correlation between the moisture content of the sample and the relative humidity during the moisture adsorption process of the sample. DVS patterns can be measured, for example, on a model IGAsorp instrument. In one embodiment, the dynamic vapor sorption pattern of the crystal form I is determined by the following method: DVS dynamic vapor sorption instrument: IGAsorp; temperature: 25° C.; temperature stability: 0.1° C./min; carrier gas: nitrogen; flow rate: 250 mL/min; scanning: 2; minimum time: 30 min; maximum time: 2 hours; upper waiting limit: 98%; humidity gradient: adsorption: 0, 10, 20, 30, 40, 50, 60, 70, 80, 90; desorption: 80, 70, 60, 50, 40, 30, 20, 10, 0. DVS Dynamic Vapor Sorption Apparatus: IGAsorb, the temperature is 25° C., the temperature stability: 0.1° C./min, the carrier gas is nitrogen, the flow rate is 250 mL/min, scanning: 2, the minimum time is 30 min, the maximum time is 2 hours, the upper waiting limit is 98%, humidity gradient: adsorption: 0, 10, 20, 30, 40, 50, 60, 70, 80, 90; desorption: 80, 70, 60, 50, 40, 30, 20, 10, 0.

Data set [3] in a line: powder properties (bulk density, tap density, Carr index, angle of repose).
Data set [4] can be described thus: thermogravimetric analysis (TGA) test. To be noted: heated to 200° C. The text has this: Thermogravimetric analysis (TGA) is a common method for determining the thermal stability of compounds. Herein, TGA is also used to determine the hydration state of a compound. The rate of temperature rise during the test have a certain impact on the pattern. For example, an excessively high rate of temperature rise is not conducive to the detection of intermediate products. TGA patterns can be measured, for example, on a model TA TGA Q500 instrument. In one embodiment, the thermogravimetric analysis pattern of the crystal form I is determined by the following method: TGA thermogravimetric analyzer: TA TGA Q500; temperature range: room temperature ˜350° C.; scanning rate: 10° C./min; protective gas: nitrogen; flow rate: 40 mL/min (balance) or […] (sample). TGA Thermogravimetric Analyzer: TA TGA Q500, temperature range is from room temperature to 350° C., scanning rate is 10° C./min, the protective gas is nitrogen, and the flow rate is 40 mL/min (balance) or 60 mL/min (sample).

Data set [5] is described as follows: crystal form I stability test (HPLC purity and XRPD after storage). To be noted: for chemical and physical stability (result in words): 40° C./75% RH and 60° C. for 14 days, HPLC purity and XRPD. As to the method: X-ray powder diffractometer: Bruker D8 advance X, the radiation source is Cu-Ku, the scanning range of the test is 3° (2θ)˜40° (2θ), the scanning step size is 0.02° (2θ), and the scanning rate is 0.3 sec/step. HPLC (purity determination): Waters Acquity Arc liquid chromatography system or any equivalent; Column: EclipsexDB C18, 4.6×150 mm, 3.5 μm, or any equivalent; Column temperature: 30° C.; detection wavelength: 210 nm; mobile phase A: 0.05% trifluoroacetic acid aqueous solution; mobile phase B: 0.05% trifluoroacetic acid acetonitrile solution; concentration gradient running time: 20 minutes. Two samples of the crystal form I were placed under the conditions of 40° C./75% relative humidity (RH), and the temperature in the oven was 60° C. (with humidity not controlled) for 14 days.

Data set [6] can be described thus: particle size distribution (PSD) test. As to the method: In one embodiment, the particle size distribution (PSD) of the crystal form I is determined using a Malvern Mastersizer 2000. The parameters used may be: pump speed: 2500 rpm; dispersant volume: 800 mL; dispersant: water; dispersion medium: 1% Tween 80. Crystal form I is a granular crystal, and the particle size is 50-100 μm observed under a microscope (Nikon Eclipse LV100POL). The particle size distribution (PSD) of the crystal form I was determined using a Malvern Mastersizer 2000. Pump speed: 2500 rpm; Dispersant volume: 800 mL; Shielding degree: 10%-20%; Dispersant: water; Dispersion medium: 1% Tween 80; Background measurement: 12s; Sample measurement: 12s; Measurement cycle: 3.

Setting [7] is: Malvern Mastersizer 2000, dispersant water, 1% Tween 80.

Values joined by “and” are separate entries in the source; they are usually repeats but may differ in a detail not shown here. Equal entries are not always repeated.

`COc1cc2c(C)c(CC(=O)N3CCOCC3)c(=O)oc2c(C=O)c1O` [crystal form I]: the “crystal form after grinding (XRPD)” value in data set [1] is “the crystal form does not change”. For the same molecule, the “hygroscopicity (result in words)” value in data set [2] (25° C.) was “only slightly hygroscopic”; in data set [2] (25° C., listed as Orin1001 crystal form I) it was “slightly hygroscopic”. In addition, in data set [2] (XRPD before and after DVS), the “crystal form after DVS measurement (XRPD)” value is recorded as “did not change”. For the same molecule, the “weight gain (DVS)” value in data set [2] (after equilibration at 90% relative humidity, 25° C.) came to 0.34%. Further, the Carr index in data set [3] turned out to be 20%. This molecule yielded an angle of repose in data set [3] of 30.6 °. The same molecule came in with a bulk density in data set [3] of 0.72 g/mL. Also, in data set [3], the “fluidity (result in words)” value is given as “very good”. Further, the tap density in data set [3] was found to be 0.90 g/mL. In addition, the “weight loss (TGA)” value in data set [4] is on record as “about 0.017%”. Further, the “chemical and physical stability (result in words)” value was “good chemical and physical stability” in data set [5]; “excellent stability” in data set [5] (listed as Orin1001 crystal form I). The “HPLC purity: peak area %” value was 99.62% and 99.54% in data set [5] (40° C./75% RH, the 7th day); 99.54% and 99.56% in data set [5] (40° C./75% RH, the 14th day); 99.64% and 99.58% in data set [5] (60° C. (in oven), humidity not controlled, the 7th day); 99.52% and 99.54% in data set [5] (60° C. (in oven), humidity not controlled, the 14th day); 99.60% and 99.58% in data set [5] (TO column of the 7th day table); 99.53% and 99.54% in data set [5] (TO column of the 14th day table). In data set [6] (setting [7]), the “D(0.1)” value is reported as 67.1 μm. Moreover, the “D(0.5)” value in data set [6] (setting [7]) was determined as 115.5 μm. Also, the “D(0.9)” value in data set [6] (setting [7]) worked out at 206.4 μm. Moreover, the “particle size observed under a microscope” value in data set [6] (Nikon Eclipse LV100POL) is reported as 50-100 μm.
